Assay [1] relates to rat mammary stromal cells (MSC). In words: In vitro angiogenesis assay: microcapillary network formation on EHS-RBM. The class given is cell-based. Particulars: 7 days in culture; for microcapillary network diameter: 75, 100 and 125 μM. On the procedure: An in vitro angiogenesis assay, the formation of microcapillary networks by rat mammary stromal vascular precursor cells on the angiogenic substrate, EHS-RBM, was used to compare the isomer- and concentration-dependent effects of mixed CLA isomers and c9,t11- and t10,c12-CLA. Rat mammary stromal cells (MSC) have the ability to act as true vascular precursors and were isolated from mammary glands as described (Zangani et al., 1999).
CLA-containing media was prepared as follows. Briefly, 18.1 μl of 5N NaOH was added to 28.2 μl of CLA (0.9 g/ml, FW 280) in a small Erlenmeyer flask, followed by vortexing, to make the sodium salt. Warm fetal calf serum (10 ml) was added, sonicated 3–4× with brief pulses (5 sec each), and then gassed with nitrogen and the flask sealed with parafilm. The mixture was incubated in a sonicating water bath for 30 min, followed by 5 min incubation in a 50° C. water bath. FBS (11.9 ml) was added to the flask, to bring the CLA to a final 33× concentration (4.125 mM).
Early passage MSC (prior to passage 4) were cultured in a 24 well plate at 2×10^4 cells/well, plated onto 0.4 ml EHS-RBM in the presence of phenol red free F12/DME with 3% FCS, supplemented with 0, 25, 50, 75, 100 or 125 μM CLA. After 7 days in culture, when the cells had formed multiple colonies of three-dimensional networks of tubules (Zangani et al., 1999), capillary networks were photographed, and the extent of network formation was assessed by measuring four planar diameters, at 45° intervals, of the branching colonies. The five largest colonies in each of three wells per group were assessed, for a total of fifteen colonies for each concentration of CLA per experiment. This experiment was replicated twice.

For assay [2], the system named is rat mammary carcinogenesis. Particulars: Ip et al, 1991, 1994, 1995; cited from earlier work.
Assay [3] concerns mouse epidermal carcinogenesis. The conditions noted are these: Ha et al, 1987; Belury et al, 1996; cited from earlier work.
Assay [4] relates to VEGF. Put plainly: Western blot of VEGF in whole mammary gland lysates. In kind it is in vivo, CD2/F1 mice. The conditions noted are these: dietary CLA 7 weeks, no angiogenic challenge, dose-dependent. How it is done:
(§1) Alternately, for analysis of whole mammary gland levels of VEGF and Flk-1, 10 mice per group were placed on diet at 8 weeks of age, and mice were sacrificed 7 weeks after diet initiation. Mammary glands were snap-frozen in liquid nitrogen to be utilized for preparation of whole gland lysates.
Whole mammary glands (gland four) were dissected after sacrifice from mice fed control- or CLA-supplemented diets, snap-frozen in liquid nitrogen and stored at −80° C. Lysates were prepared by pulverizing the frozen glands in a liquid nitrogen-cooled metal pulverizer to a fine powder. The powder was weighed in a pre-tared microfuge tube, and resuspended in ice-cold Triton X-100 lysis buffer (50 mM Tris, pH7.5 at room temperature, 250 mM NaCl, 5 mM EDTA, 0.1% (v/v) Triton X-100, supplemented with 0.1 mM PMSF, 20 ng/ml leupeptin and 100 ng/ml soybean trypsin inhibitor) using 2 ml per gram of tissue. The powder was then homogenized in an ice-cold microfuge tube, using 10–15 strokes of a fitted glass homogenizer. […] Lysates from 7 mice per dietary group were analyzed.
Lysates were loaded using equal protein per well, and proteins were separated on a 7.5% reducing SDS-gel according to the method of Laemmli well known in the art. […] Specific antibody-reactive bands were quantified by densitometry using a Model 300A Scanning Laser Densitometer and ImageQuant software (Molecular Dynamics).

Assay [5] concerns Flk-1 (VEGF receptor 2). In words: Western blot of Flk-1 in whole mammary gland lysates. In kind it is in vivo, CD2/F1 mice. On the procedure: as §1
Whole mammary glands (gland four) were dissected after sacrifice from mice fed control- or CLA-supplemented diets, snap-frozen in liquid nitrogen and stored at −80° C. Lysates were prepared by pulverizing the frozen glands in a liquid nitrogen-cooled metal pulverizer to a fine powder. The powder was weighed in a pre-tared microfuge tube, and resuspended in ice-cold Triton X-100 lysis buffer (50 mM Tris, pH7.5 at room temperature, 250 mM NaCl, 5 mM EDTA, 0.1% (v/v) Triton X-100, supplemented with 0.1 mM PMSF, 20 ng/ml leupeptin and 100 ng/ml soybean trypsin inhibitor) using 2 ml per gram of tissue. The powder was then homogenized in an ice-cold microfuge tube, using 10–15 strokes of a fitted glass homogenizer. Samples were incubated on ice for 30 minutes, and then centrifuged for 10 min at 4° C. at 8,000×g. The supernatants were then aliquoted and frozen at −20° C. An aliquot of the sample was used to determine protein concentration, using the Bio-Rad protein assay. Immediately before electrophoresis, samples were prepared for loading by adding 4× Laemmli SDS-sample buffer at a 1:3 ratio to the thawed sample. The sample was then boiled, sonicated, and centrifuged for 10 min at 4° C., 8,000×g in a microfuge, before loading supernatant. Lysates from 7 mice per dietary group were analyzed.
Lysates were loaded using equal protein per well, and proteins were separated on a 7.5% reducing SDS-gel according to the method of Laemmli well known in the art. Proteins were transferred to nitrocellulose using a Bio-Rad Transblot Apparatus (Hercules, Calif.). Blots were blocked with Blotto (TBS (10 mM Tris, pH 8.0, 150 mM NaCl), 0.5% Tween 20, 5% (w/v) non-fat dry milk). All antibody incubations and subsequent rinses were performed in Blotto, with vigorous rocking. Rabbit anti-VEGF-A was used at a final concentration of 2 μg/ml, and rabbit anti-Flk-1 was used at a final concentration of 1 μg/ml. To control for variability in loading, the same blots used for VEGF were stripped and probed for Flk-1. The blots were then stripped again and probed with mouse antisera to hsc70, at a 1:20,000 final concentration. Hsc70 was used as a control for cellular protein loading of western blots, as a constitutively expressed cytoplasmic housekeeping protein. […] Specific antibody-reactive bands were quantified by densitometry using a Model 300A Scanning Laser Densitometer and ImageQuant software (Molecular Dynamics).
(A western blot detects proteins with antibodies after separation by electrophoresis.)

In assay [6] the test system is aberrant crypt foci in the rat colon. Particulars: Liew et al, 1995; cited from earlier work.
Assay [7] deals with MDA-MB468 breast cancer cells and DU-145 prostatic tumor cells. The conditions noted are these: MDA-MB468 and DU-145 cells in SCID mice; Visonneau et al, 1997; Cesano et al, 1998; cited from earlier work.
For assay [8], the system named is EHS-RBM pellet (angiogenic challenge). Put plainly: In vivo EHS-RBM angiogenesis assay. On the set-up: species or system CD2/F1 mice. On the procedure:
(§2) To determine the effects of dietary CLA on angiogenesis, the in vivo angiogenesis model of Kibbey et al., 1992 was utilized. Briefly, CD2/F1 female mice were placed on diets with or without CLA at 8 or 12 weeks of age, with 10–12 mice per group per experiment. After 6 weeks of diet, mice were given bilateral injections of EHS-RBM containing 1.25 μg/ml bFGF and 60 μg/ml heparan sulfate using a 25-gauge needle, into the region of mammary gland four. Mice were sacrificed 7 days after injection. Blood was collected from the trunk for preparation of plasma for analysis of VEGF levels. Pellets and adjacent normal mammary gland tissue were removed and formalin fixed for paraffin embedding. This experiment was repeated four times.
Microsope visual fields, visualized with a 20× objective were analyzed for cellular invasion, and with a 40× objective for the presence of functional blood vessels, for a final magnification of 200 or 400×, respectively. The ability of dietary CLA to affect cellular invasion into the EHS-RBM pellet was analyzed on H&E-stained paraffin sections by counting the number of nuclei per field, excluding all acellular regions that remained uninvaded. A total of 68 fields were assessed in 13 pellets from mice on control diets, 75 fields were assessed from 9 pellets from mice on 1% CLA diets, and 62 fields analyzed from 13 pellets, obtained from mice on 2% CLA diets. We analyzed all pellets retrieved from the animals; there was a decline in the number of visible pellets in CLA-fed animals.
Functional angiogenesis was quantified by determining the number of cell-lined structures with patent lumen and red blood cells. H&E stained paraffin sections were visualized by epifluorescent illumination; red blood cells are strongly fluorescent due to their intensely eosinophilic cytoplasm. This intensity is easily distinguished from the dimly fluorescent nucleated cells. The relative dimness of nucleated cells may be partly due to the presence of nuclear and/or cytoplasmic hematoxylin, which quenches fluorescence. A total of 162 fields were analyzed from 21 slides from control diet animals, 158 fields were analyzed from 21 slides from 1% CLA diet animals, and 174 fields were analyzed from 13 slides from 2% CLA diet animals.

The subject of assay [9] is mouse forestomach neoplasia. Particulars: Ha et al, 1990; cited from earlier work.
Assay [10] relates to VEGF-A. In words: Serum VEGF analysis by ELISA after EHS-RBM challenge. In kind it is in vivo, CD2/F1 mice. The conditions noted are these: for reduction of average serum VEGF levels: 7 days after angiogenic challenge, relative to control diet. How it is done:
as §2
Serum VEGF (VEGF-A) levels were assessed by ELISA using a commercial kit (Quantikine M mouse VEGF ELISA, R&D Systems), as per the manufacturer's instructions. VEGF levels were assessed in sera from mice which had been on diet for a total of 7 weeks, and had received EHS-RBM angiogenic challenge 1 week prior to sacrifice.
A general note: An ELISA detects its analyte on a solid surface through an enzyme-linked reagent.

On to `CCCCCC/C=C/C=C\CCCCCCCC(=O)O` [c9,t11-CLA, cis-9, trans-11 CLA], for which the microcapillary network diameter entry in assay [1] is reported as “significantly decreased”.
For `CCCCC/C=C\C=C\CCCCCCCCC(=O)O` [t10,c12-CLA], the microcapillary network size result in [1] (100 and 125 μM) is given as “significant decreased”.
For the molecule Conjugated Linoleic Acid [CLA], the “DMBA- and NMU-induced rat mammary carcinogenesis” value in assay [2] was “inhibit”. Further, the “DMBA-induced mouse epidermal carcinogenesis” value in [3] is on record as “inhibit”. For the same molecule, in assay [1], the microcapillary network diameter entry is recorded as “significantly decreased”. The “total number of colonies and size/extent of their branching” value in assay [1] (MSC on EHS-RBM) is given as “inhibited”. For the same molecule, the “mammary gland VEGF 28 kDa band, densitometry normalized to hsc70” value in assay [4] is “significantly decreased”. The “mammary gland VEGF 54 kDa band, densitometry normalized to hsc70” value in assay [4] was “significantly decreased”. Further, the “expression of Flk-1 protein on western blot” value in [5] (animals fed 2% CLA) is recorded as “uniformly low expression”; in [5] (mice fed 1% CLA) it was “variable expression”. Moreover, the “mammary gland Flk-1 60 kDa band, scanning densitometry” value in assay [5] (dietary CLA, dose-dependent) is “statistically significant decrease”. The “mammary gland Flk-1 200 kDa band, scanning densitometry” value in assay [5] (dietary CLA, dose-dependent) was “statistically significant decrease”. In addition, the “incidence of aberrant crypt foci in the rat colon” value in assay [6] is “inhibit”. The “size and metastatic spread of human tumor cells” value in assay [7] is “reduce”. Also, the “functional angiogenesis within the EHS pellet (structures containing red blood cells)” value in [8] (1% CLA diet vs control diet) and in assay [8] (2% CLA diet vs control diet) was “significantly decreased” in each case. The “cellular invasion, number of nuclei per field in the invaded regions of the pellet” value in assay [8] (CLA-fed mice (1% or 2% CLA diet) vs control diet, 7 days after EHS-RBM injection) is recorded as “significantly decreased”. In [8] (CLA-fed vs control mice, data not shown), the “average measured depth of cellular infiltration of the pellet” value is listed as “not different”. The “BP-induced mouse forestomach neoplasia” value in [9] was “inhibit”. The “reduction of average serum VEGF levels” value in assay [10] (1% CLA diet for 7 weeks) and in assay [10] (2% CLA diet for 7 weeks) was “approximately 40%” throughout. For the same molecule, in [10] (data not shown), the “systemic effect on serum VEGF with or without angiogenic challenge” value is recorded as “only significant in mice stimulated by angiogenic challenge”.
